Laboratory results reported in article PMC6003189, “Molecular and biochemical characterization of a novel isoprene synthase from Metrosideros polymorpha” (BMC Plant Biology, 2018).

System: T1, MpIspS
T1 construct: gene IspS
Conditions: 50 mM MOPS pH 6.0, 5 mM Mn^2+, 50 °C, 10 min; fit below 15 mM DMAPP

- Km: 8.11 mM
Compound: CC(C)=CCOP(=O)(O)OP(=O)(O)O [DMAPP]
